Earlier results as cited in paper PMC6724535 (Journal of molecular biology, 2019).

Key:
E. coli expressing TetX = E. coli expressing TetX vs wild-type E. coli
[1] = system: E. coli expressing TetK, TetA, TetB, and TetM
[2] = system: E. coli expressing AACs, ANTs, APHs and 16S rRNA ribosomal methyltransferases

Compound: jessenipeptin
- amoebicidal activity IC50 (D. discoideum): 4 µg/mL

Compound: CN(C)[C@@H]1C(O)=C(C(N)=O)C(=O)[C@@]2(O)C(O)=C3C(=O)c4c(O)c(NC(=O)CN5CCCC5)cc(F)c4C[C@H]3C[C@@H]12 [eravacycline]
- increase in minimal inhibitory concentration (MIC) relative to wild-type E. coli (E. coli expressing TetX): 64 fold
- antibacterial activity [1]: maintained nearly full antibacterial activity

Compound: CN[C@@H]1[C@@H](O)[C@@H](O[C@@H]2[C@@H](O)[C@H](O[C@H]3OC(CNCCO)=CC[C@H]3N)[C@@H](N)C[C@H]2NC(=O)[C@@H](O)CCN)OC[C@]1(C)O [plazomicin]
- activity against E. coli expressing aminoglycoside inactivating enzymes ([2]; majority of canonical AACs, ANTs, and APHs): maintain activity
- antibacterial activity with ribosomal methyltransferases ([2]; some plasmid-encoded 16S rRNA ribosomal methyltransferases): completely abolish
